The term EC50 denotes the concentration needed to bring the measured effect to its halfway point.

Where only a bound is given, the exact number is not on record here.

For the experiment, the target named is T1, human farnesol receptor protein hFXR (Homo sapiens, UniProt Q96RI1).
T1 construct: hexahistidine (His6)
T1 sequence (Q96RI1 1-486): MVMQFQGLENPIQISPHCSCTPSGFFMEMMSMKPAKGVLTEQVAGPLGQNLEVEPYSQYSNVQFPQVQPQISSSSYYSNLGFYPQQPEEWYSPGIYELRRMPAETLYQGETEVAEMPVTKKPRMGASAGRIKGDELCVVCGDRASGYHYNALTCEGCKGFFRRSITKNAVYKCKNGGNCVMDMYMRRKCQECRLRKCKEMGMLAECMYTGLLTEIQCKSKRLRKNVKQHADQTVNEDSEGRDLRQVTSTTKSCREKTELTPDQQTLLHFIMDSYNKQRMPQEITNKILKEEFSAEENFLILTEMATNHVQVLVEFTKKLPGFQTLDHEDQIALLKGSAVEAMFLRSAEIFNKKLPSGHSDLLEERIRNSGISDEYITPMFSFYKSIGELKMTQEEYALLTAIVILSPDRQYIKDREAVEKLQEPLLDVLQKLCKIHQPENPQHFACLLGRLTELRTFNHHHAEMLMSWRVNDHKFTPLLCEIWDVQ
In words: AlphaScreen assay of FXR agonist activity in vitro: effect on binding between human farnesol receptor protein and its coactivator (SRC1-2). The class given is biochemical. The settings on record: hFXR 100 nM, peptide bSRC1-2 50 nM, 2 hr incubation at room temperature. The method, then: FXR agonist activity in vitro for the chemicals prepared in the above examples is measured.
AlphaScreen-based assays are performed with a hexahistidine detection kit manufactured by Perkins-Elmer, for measuring the effect of chemical compounds on the binding between human farnesol receptor protein and its coactivator (SRC1-2), the method is shown as follows:
1) Preparing a mixture comprising human farnesol receptor protein hFXR (100 nM, 15 μL/well), peptide bSRC1-2 (50 nM, 15 μL/well), 10× AlphaScreen buffer solution (15 μL/well and DI water (60 μL/well), and then transferring 105 μL/well of the mixture to a 96-well plate; 2) Diluting the chemicals prepared in the above examples by twice gradient 12×, with 15 μL/well; 3) Adding donor beads and acceptor beads, 30 μL/well in total; (attention: the beads are light-sensitive) 4) Incubating in dark at room temperature for 2 hr; 5) Transferring 40 μL/well of the mixture to a 384-well plate with 3 replicates, and then centrifuging at 1000 rpm for 1 min, to make liquid mixed well underneath the wells. (attention: photopathic operation); 6) In a dark room, reading the plate (by Homogeneous luminescent immunoassay system) to obtain EC50 with a GraphPad Prism5 software.
On the technique in general: In Alpha technology, singlet oxygen from a donor bead excites a nearby acceptor bead.
“2-(5-((5-cyclopropyl-3-(2,6-dichlorophenyl)isoxazol-4-yl)methoxy)hexahydrocyclopenta[c]pyrrol-2(1H)-yl) benzo[d]thiazole-6-carboxylic Acid [Example 27]” showed an EC50 greater than 1000 nM.
As for `COc1cc(C(=O)O)cc2sc(N3CCC4(CC(OCc5c(-c6c(Cl)cccc6Cl)noc5C5CC5)C4)C3)nc12` (stereo not shown) [Example 12, 2-(2-((5-cyclopropyl-3-(2,6-dichlorophenyl)isoxazol-4-yl)methoxy)-6-azaspiro[3.4]octan-6-yl)-4-methoxybenzo[d]thiazole-6-carboxylic Acid], the figure is 100 to 1000 nM.
As for `O=C(O)c1ccc(N2CCC3(CC(OCc4c(-c5c(Cl)cccc5Cl)noc4C4CC4)C3)C2)nn1` (stereo not shown) [Example 46, 6-(2-((5-cyclopropyl-3-(2,6-dichlorophenyl)isoxazol-4-yl)methoxy)-6-azaspiro[3.4]octan-6-yl) pyridazine-3-carboxylic Acid], the figure is less than 100 nM.
As for `COc1cc(C(=O)O)cc2sc(N3CC4(CC(OCc5c(-c6c(Cl)cccc6Cl)noc5C5CC5)C4)C[C@H]3C)nc12` (stereo partly shown) [Example 18], the figure is 100 to 1000 nM.
The compound `Cn1cc(C(=O)O)c2ccc(N3CCC4(CC(OCc5c(-c6c(Cl)cccc6Cl)noc5C5CC5)C4)C3)cc21` (stereo not shown) [Example 33, 6-(2-((5-cyclopropyl-3-(2,6-dichlorophenyl)isoxazol-4-yl)methoxy)-6-azaspiro[3.4]octan-6-yl)-1-methyl-1H-indole-3-carboxylic Acid] came in with an EC50 of 100 to 1000 nM.
As for `O=C(O)c1ccc2nc(N3CCc4cc(OCc5c(-c6c(F)cccc6F)noc5C5CC5)ccc4C3)sc2c1` [Example 40, 2-(6-((5-cyclopropyl-3-(2,6-difluorophenyl)isoxazol-4-yl)methoxy)-3,4-dihydroisoquinolin-2(1H)-yl) benzo[d]thiazole-6-carboxylic Acid], the figure is less than 100 nM; as for `O=C(O)c1ccc2nc(N3CCC4(CC(OCc5c(-c6c(Cl)cccc6Cl)noc5C5CC5)C4)C3)ccc2c1` (stereo not shown) [Example 34, 2-(2-((5-cyclopropyl-3-(2,6-dichlorophenyl)isoxazol-4-yl)methoxy)-6-azaspiro[3.4]octan-6-yl)quinolin-6-carboxylic Acid], 100 to 1000 nM; as for `O=C(O)c1ccc2nc(N3CCc4cc(OCc5c(-c6ccccc6C(F)(F)F)noc5C5CC5)ccc4C3)sc2c1` [Example 43, 2-(6-((5-cyclopropyl-3-(2-trifluoromethylphenyl)isoxazol-4-yl)methoxy)-3,4-dihydroisoquinolin-2(1H)-yl) benzo[d]thiazole-6-carboxylic Acid], less than 100 nM.
As for `O=C(O)c1ccc2nc(N3CC4(CC(OCc5c(-c6c(Cl)cccc6Cl)noc5C5CC5)C4)C[C@H]3CF)oc2c1` (stereo partly drawn) [Example 21, (S)-2-(2-((5-cyclopropyl-3-(2,6-dichlorophenyl)isoxazol-4-yl)methoxy)-7-(fluromethyl)-6-azaspiro[3.4]octan-6-yl) benzo[d]oxazole-6-carboxylic Acid], the figure is 100 to 1000 nM.
`O=C(O)c1cccc(N2CC3(CC(OCc4c(-c5c(Cl)cccc5Cl)noc4C4CC4)C3)C2)c1` [Example 9, 3-(6-((5-cyclopropyl-3-(2,6-dichlorophenyl)isoxazol-4-yl)methoxy)-2-azaspiro[3.3]heptan-2-yl)benzoic Acid] displayed a 50% effective concentration (EC50) of 100 to 1000 nM.
As for `O=C(O)c1ccc2nc(N3CCC4(CC(OCc5c(-c6c(Cl)cccc6Cl)noc5C5CC5)C4)C3)sc2c1` (stereo not shown) [Example 8, 2-(2-((5-cyclopropyl-3-(2,6-dichlorophenyl)isoxazol-4-yl)methoxy)-6-azaspiro[3.4]octan-6-yl)benzo[d]thiazole-6-carboxylic Acid], the figure is less than 100 nM; as for `O=C(O)c1nsc2cc(N3CCC4(CC(OCc5c(-c6c(Cl)cccc6Cl)noc5C5CC5)C4)C3)ccc12` (stereo not shown) [Example 31, 6-(2-((5-cyclopropyl-3-(2,6-dichlorophenyl)isoxazol-4-yl)methoxy)-6-azaspiro[3.4]octan-6-yl) benzo[d]isothiazole-3-carboxylic Acid], less than 100 nM; as for `O=C(O)c1cccc(N2CCC3(CC(OCc4c(-c5c(Cl)cccc5Cl)noc4C4CC4)C3)C2)n1` (stereo not shown) [Example 36, 6-(2-((5-cyclopropyl-3-(2,6-dichlorophenyl)isoxazol-4-yl)methoxy)-6-azaspiro[3.4]octan-6-yl)pyridine-2-carboxylic Acid], 100 to 1000 nM.
As for `O=C(O)c1ccc(N2CCC3(CC(OCc4c(-c5c(Cl)cccc5Cl)noc4C4CC4)C3)C2)cn1` (stereo not shown) [Example 45], the figure is 100 to 1000 nM; as for `O=C(O)c1ccc2nc(N3CCC(COCc4c(-c5c(Cl)cccc5Cl)noc4C4CC4)CC3)sc2c1` [Example 48], 100 to 1000 nM.
As for `O=C(O)c1cc2cc(N3CCC4(CC(OCc5c(-c6c(Cl)cccc6Cl)noc5C5CC5)C4)C3)ccc2o1` (stereo not shown) [Example 29], the figure is less than 100 nM.
Take `O=C(O)c1ccc2nc(N3CCC4(CC(OCc5c(-c6ccccc6C(F)(F)F)noc5C5CC5)C4)C3)sc2c1` (stereo not shown) [Example 41, 2-(2-((5-cyclopropyl-3-(2-trifluoromethylphenyl)isoxazol-4-yl)methoxy)-6-azaspiro[3.4]octan-6-yl) benzo[d]thiazole-6-carboxylic Acid]: the EC50 fell in the range of 100 to 1000 nM.
As for `O=C(O)c1ccc2nc(N3CC4CCC(OCc5c(-c6c(Cl)cccc6Cl)noc5C5CC5)CC4C3)sc2c1` (stereo not shown) [Example 25, 2-(5-((5-cyclopropyl-3-(2,6-dichlorophenyl)isoxazol-4-yl)methoxy)hexahydro-1H-isoindol-2(3H)-yl) benzo[d]thiazole-6-carboxylic Acid], the figure is 100 to 1000 nM.
As to `O=C(O)c1cccc(C(=O)N2CCC3(CC(OCc4c(-c5c(Cl)cccc5Cl)noc4C4CC4)C3)C2)c1` (stereo not shown) [Example 7, 3-(2-((5-cyclopropyl-3-(2,6-dichlorophenyl)isoxazol-4-yl)methoxy)-6-azaspiro[3.4]octan-6-carbonyl)benzoic Acid], the EC50 was less than 100 nM.
As for `CS(=O)(=O)NC(=O)c1ccc2nc(N3CCC4(CC(OCc5c(-c6c(Cl)cccc6Cl)noc5C5CC5)C4)C3)sc2c1` (stereo not shown) [Example 47, 2-(2-((5-cyclopropyl-3-(2,6-dichlorophenyl)isoxazol-4-yl)methoxy)-6-azaspiro[3.4]octan-6-yl)-N-(methylsulfonyl)benzo[d]thiazole-6-carboxamide], the figure is 100 to 1000 nM; as for `O=C(O)c1ccc2nc(N3CC4CC(OCc5c(-c6c(Cl)cccc6Cl)noc5C5CC5)CC4C3)sc2c1` (stereo not shown) [Example 26, 2-(5-((5-cyclopropyl-3-(2,6-dichlorophenyl)isoxazol-4-yl)methoxy)hexahydrocyclopenta[c]pyrrol-2(1H)-yl) benzo[d]thiazole-6-carboxylic Acid], less than 100 nM; as for `O=C(O)c1ccc2nc(N3CCC4(CC(OCc5c(-c6ccccc6C(F)(F)F)noc5C5CC5)C4)C3)oc2c1` (stereo not shown) [Example 42, 2-(2-((5-cyclopropyl-3-(2-trifluoromethylphenyl)isoxazol-4-yl)methoxy)-6-azaspiro[3.4]octan-6-yl) benzo[d]oxazole-6-carboxylic Acid], 100 to 1000 nM.

For the origin of these results see patent US20190002452A1 (GUANGZHOU HENOVCOM BIOSCIENCE CO., LTD, priority 2016, published 2019).
